Laboratory results: paper PMC6736568, “Discovery of Novel Anti-cryptosporidial Activities From Natural Products by in vitro High-Throughput Phenotypic Screening” (Frontiers in Microbiology, 2019)
Counter-ions that a name gives are not always drawn. Like-named read-outs stand apart in the source and are kept apart here.

Key:
Cryptosporidium parvum = assay: qRT-PCR assay of the growth of C. parvum in vitro in HCT-8 host cells (primary and secondary screening, EC50); type: cell-based; details: Cryptosporidium parvum, HCT-8; for inhibition at 10 µM: primary screening at 10 uM, read-out: Inhibition (%); for inhibition at 3.3 µM: secondary screening at 3.3 uM, read-out: % Inhibition (3.3 uM)
[1] = primary screening at 10 uM, treated vs control

| Compound | Hs18S ΔCT (HCT-8 host cells (Hs18S); human, 41 h, 10 μM) | inhibition at 10 µM (Cryptosporidium parvum) [%] | cytotoxicity at 41 h, 10 µM (in vitro; human) [%] | inhibition at 3.3 µM (Cryptosporidium parvum) [%] | Hs18S ΔCT (HCT-8 host cells (Hs18S); [1]) | cytotoxicity at 10 µM (in vitro) [%] | cytotoxicity at 41 h, 10 µM (in vitro) [%] |
| --- | --- | --- | --- | --- | --- | --- | --- |
| Cc1cc(O)c2c(c1)C(=O)c1cc(O)cc(O)c1C2=O [EMODIN] | -0.04 | -18 | -3 |  |  |  |  |
| CCCCCCCCCc1ccc(O)cc1 [4-NONYLPHENOL] |  | 83.1 |  | -181 | 0.14 | 9.2 |  |
| CC(C)CCC[C@@H](C)[C@H]1CC[C@H]2[C@@H]3CC=C4C[C@@H](O)CC[C@]4(C)[C@H]3CC[C@]12C [CHOLESTEROL] | -0.05 | -26.8 |  |  |  | -3.8 |  |
| O=c1c(O)c(-c2ccc(O)c(O)c2)oc2c(O)c(O)cc(O)c12 [GOSSYPETIN] |  | -17.5 |  |  | -0.04 | -2.6 |  |
| COc1cc(O)c2c(c1)C(=O)c1cc(C)cc(O)c1C2=O [PHYSCION] |  | -57.5 |  |  | 0.20 | 12.9 |  |
| CC(C)(O)CC[C@@H](O)[C@](C)(O)[C@H]1CC[C@@]2(O)C3=CC(=O)[C@@H]4C[C@@H](O)[C@@H](O)C[C@]4(C)[C@H]3CC[C@]12C [CRUSTECDYSONE] |  | 39.8 | -10.6 |  | -0.15 |  |  |
| COc1cccc2c1cc([N+](=O)[O-])c1c(C(=O)O)cc3c(c12)OCO3 [ARISTOLOCHIC ACID] |  | 8.39 |  |  | -0.03 |  | -1.8 |
| C=C(C)[C@H]1CC=C(C)CC1 [d-LIMONENE] | -0.21 | -6.54 | -15.7 |  |  |  |  |
| COc1ccc2c(c1OC)OC[C@@H](c1ccc(OC)c(OC)c1OC)C2 [DUARTIN, DIMETHYL ETHER] | -0.22 | -13.5 | -16.4 |  |  |  |  |
| COc1ccc(/C=C/c2cc(O)cc(O)c2)cc1 [RESVERATROL 4'-METHYL ETHER] |  | -37.3 |  |  | -0.37 | -29 |  |
| S=C=NCc1ccccc1 [BENZYL ISOTHIOCYANATE] |  | 91.8 | 32.8 | 14 | 0.57 |  |  |
| CN(C)[C@@H]1C(O)=C(C(N)=O)C(=O)[C@@]2(O)C(O)=C3C(=O)c4c(O)ccc(Cl)c4[C@@](C)(O)[C@H]3C[C@@H]12 [CHLORTETRACYCLINE HYDROCHLORIDE] |  | -14.1 |  |  | -0.03 | -2 |  |
| CC(C)=CCC/C(C)=C/CC/C(C)=C/CC/C(C)=C/CC1=C(C)C(=O)c2ccccc2C1=O [MENAQUINONE-4] | 0.06 | -13.8 | 4.1 |  |  |  |  |
| CC1=C(CCC(=O)O)c2cc3[nH]c(cc4nc(cc5[nH]c(cc1n2)c(C)c5C(C)O)C(C)=C4C(C)O)c(C)c3CCC(=O)O (centres unmarked) [HAEMATOPORPHYRIN] | 1.45 | 93.1 | 63.3 | 33 |  |  |  |
| COc1ccc(-c2coc3cc(O)ccc3c2=O)cc1 [FORMONONETIN] | -0.62 | 13.2 | -53.6 |  |  |  |  |
| Cc1c(C)c2c(c(C)c1O)CCC(C)(CCCC(C)CCCC(C)CCCC(C)C)O2 (stereo not drawn) [alpha-TOCHOPHEROL] |  | -14.7 |  |  | 0.21 | 13.8 |  |
| COc1c2ccoc2nc2c(OC)c(OCC(O)C(C)(C)O)ccc12 (centres unmarked) [EVOXINE] | 0.11 | -7.37 | 7 |  |  |  |  |

| Compound | Hs18S ΔCT (HCT-8 host cells (Hs18S); human, 41 h, 10 μM) | inhibition at 10 µM (Cryptosporidium parvum) [%] | cytotoxicity at 41 h, 10 µM (in vitro; human) [%] | inhibition at 3.3 µM (Cryptosporidium parvum) [%] | Hs18S ΔCT (HCT-8 host cells (Hs18S); [1]) | cytotoxicity at 10 µM (in vitro) [%] | cytotoxicity at 41 h, 10 µM (in vitro) [%] |
| --- | --- | --- | --- | --- | --- | --- | --- |
| COC(=O)/C(=C1/OC(=O)C(c2ccccc2)=C1O)c1ccccc1 [VULPINIC ACID] | 0.64 | -77.9 | 36 |  |  |  |  |
| C=CCc1ccc(O)c(OC)c1 [EUGENOL] | -0.36 | 3.09 | -28.5 |  |  |  |  |
| C=CC(C1=CC(=O)C(OC)=CC1=O)c1ccccc1 (centres unmarked) [4-METHOXYDALBERGIONE] | -0.03 | -28.5 | -2.3 |  |  |  |  |
| NC(=O)NC1NC(=O)NC1=O (centres unmarked) [ALLANTOIN] | -0.22 | 8.13 | -16.1 |  |  |  |  |
| Nc1ncnc2c1ncn2[C@@H]1O[C@H](COP(=O)(O)O)[C@@H](O)[C@H]1O [ADENOSINE PHOSPHATE] | -0.16 | 23.5 | -11.8 |  |  |  |  |
| COc1cc(O)ccc1C(C)=O [ISOPEONOL] | 0.03 | -12.8 | 2.3 |  |  |  |  |
| C[C@@H]1CC[C@@]2(OC1)O[C@H]1C[C@H]3[C@@H]4CC[C@H]5C[C@@H](O)CC[C@]5(C)[C@H]4CC[C@]3(C)[C@H]1[C@@H]2C [TIGOGENIN] |  | 15.4 |  |  | -0.40 |  | -31.8 |
| CN(C)Cc1c[nH]c2ccccc12 [GRAMINE] |  | -43.9 | -33.5 |  | -0.42 |  |  |
| COC1=CC(=O)C(O)=C/C1=C\C=C\c1ccccc1 [OBTUSAQUINONE] | 0.84 | 87.1 | 44.3 | -92 |  |  |  |
| CN[C@@H]1[C@@H](O)[C@@H](O[C@@H]2[C@@H](O)[C@H](O[C@H]3OC(CN)=CC[C@H]3N)[C@@H](N)C[C@H]2N)OC[C@]1(C)O [SISOMICIN SULFATE] | -0.11 | 41.1 | -7.8 |  |  |  |  |
| COc1cc(OC)c2c(=O)cc(-c3ccccc3)oc2c1 [CHRYSIN DIMETHYL ETHER] |  | 90.3 |  | -69 | -0.12 | -8.6 |  |
| Cn1c(=O)c2[nH]cnc2n(C)c1=O [THEOPHYLLINE] |  | 20.5 |  |  | -0.29 | -22.6 |  |
| C=CCN=C=S [ALLYLISOTHIOCYANATE] | 0.28 | 25.7 | 17.7 |  |  |  |  |
| O=c1cc(-c2ccccc2)oc2cc(O)ccc12 [7-HYDROXYFLAVONE] |  | 9.24 |  |  | 0.17 | 10.8 |  |
| CC(C)c1ccc2c(c1)CC[C@H]1[C@](C)(CN)CCC[C@]21C [18-AMINOABIETA-8,11,13-TRIENE SULFATE] | -0.19 | 47.6 | -13.9 |  |  |  |  |
| COc1cc2c(cc1OC)-c1c(oc3c4c(ccc3c1=O)OC(C(C)C)C4)CO2 (centres unmarked) [DEHYDRODIHYDROROTENONE] |  | -21.6 |  |  | 0.06 | 4.4 |  |
| COc1c(O)cc(O)cc1O [IRETOL] | -0.32 | -15 | -24.7 |  |  |  |  |

Further lines, with some results ahead:

| Hs18S ΔCT (HCT-8 host cells (Hs18S); human, 41 h, 10 μM) | Compound | inhibition at 10 µM (Cryptosporidium parvum) [%] | cytotoxicity at 41 h, 10 µM (in vitro; human) [%] | inhibition at 3.3 µM (Cryptosporidium parvum) [%] | Hs18S ΔCT (HCT-8 host cells (Hs18S); [1]) | cytotoxicity at 10 µM (in vitro) [%] | cytotoxicity at 41 h, 10 µM (in vitro) [%] |
| --- | --- | --- | --- | --- | --- | --- | --- |
| 0.01 | O=c1c(-c2cc(O)c(O)c(O)c2)coc2cc(O)c(O)c(O)c12 [IRIGENOL] | -13.4 | 0.7 |  |  |  |  |
| 0.22 | COc1c(-c2coc3cc4c(cc3c2=O)CC(O)C(C)(C)O4)ccc2c1C=CC(C)(C)O2 (centres unmarked) [MUNDULONE] | 61.8 | 14.4 | -43 |  |  |  |
| -0.30 | CC(=O)O[C@H]1C[C@@]2(C)[C@@H](C[C@@H](O)[C@H]3[C@@]4(C)CC[C@@H](O)[C@@H](C)[C@@H]4CC[C@@]32C)/C1=C(\CCC=C(C)C)C(=O)O [FUSIDIC ACID] | -82.8 | -23.2 |  |  |  |  |
| -0.02 | CC1=CC2C(CC1=O)C(C)=CCC2C(C)C (centres unmarked) [MUUROLLADIE-3-ONE] | -7.55 | -1.7 |  |  |  |  |
| -0.04 | O=C(/C=C/c1ccc(O)c(O)c1)O[C@H](Cc1ccc(O)c(O)c1)C(=O)O [ROSMARINIC ACID] | 37.3 | -3.1 |  |  |  |  |
| -0.16 | CCc1ccc2c(O)c3c(cc2c1C(=O)OC)C(=O)c1c(O)ccc(O)c1C3=O [BISANHYDRORUTILANTINONE] | 24.5 | -12 |  |  |  |  |
| 0.02 | Nc1nc2ncc(CNc3ccc(C(=O)N[C@@H](CCC(=O)O)C(=O)O)cc3)nc2c(=O)[nH]1 [FOLIC ACID] | 3.63 | 1.3 |  |  |  |  |
| -0.18 | COC(=O)C[C@H]1C(C)(C)[C@@H](O)[C@@H]2CC3=C4CC(O)O[C@@H](c5ccoc5)[C@]4(C)CCC3[C@@]1(C)C2=O (stereo partly drawn) [3,16-DIDEOXYMEXICANOLIDE-3beta-DIOL] | 87.5 | -13.4 | 52 |  |  |  |
| 0.91 | COc1cc(C)c(C(=O)Oc2cc(C)c(C(=O)O)c(O)c2C)c(OC)c1C [DIFFRACTAIC ACID] | -3.8 | 46.7 |  |  |  |  |
| 0.30 | COc1ccc2c(c1OC)C(=O)O[C@@H]2[C@H]1c2c(cc3c(c2OC)OCO3)CCN1C [NOSCAPINE HYDROCHLORIDE] | -51.6 | 18.9 |  |  |  |  |
| -0.08 | COc1c2c(cc3occ(-c4ccc5c(c4)OCO5)c(=O)c13)OC(C)(C)C=C2 [METHYL ROBUSTONE] | -44.6 | -5.4 |  |  |  |  |
| 0.18 | COC(=O)C[C@H]1C(C)(C)C2(O)OC34CC2C(=O)[C@]1(C)C3CC[C@]1(C)C4=CC(=O)O[C@H]1c1ccoc1 (stereo partly drawn) [8beta-HYDROXYCARAPIN, 3,8-HEMIACETAL] | 89.7 | 11.8 | 64 |  |  |  |
| -0.50 | CC1=C2C(O)C(=O)OC3CC4C(C)(C)C(=O)C=C[C@]4(C)C(CC1)[C@]23C (some centres unmarked) [MEROGEDUNIN] | -12.3 | -41.1 |  |  |  |  |
| -0.63 | O=C1c2c(O)cccc2C([C@@H]2O[C@H](CO)[C@@H](O)[C@H](O)[C@H]2O)c2cc(CO)cc(O)c21 (some centres unmarked) [ALOIN] | -0.73 | -54.3 |  |  |  |  |
| -0.17 | COC(=O)C[C@H]1C(C)(C)C(=O)[C@@H]2CC3=C4CC(=O)O[C@@H](c5ccoc5)[C@]4(C)CC[C@@H]3[C@@]1(C)C2=O [MEXICANOLIDE] | 31.5 | -12.3 |  |  |  |  |
